In US20060287320A1, “Preparation of thioarabinofuranosyl compounds and use thereof” (Southern Research Institute, priority 1998, published 2006):

Experiments:
CAK1-1 Renal = experiment: In vitro IC50, 72 hour exposure, Natural Red assay; format: cell-based; conditions: read-out: IC50 Molar Values
Procedure: (§1) EXAMPLE 3 The following in vitro tests were carried out.
(§2) The above tests were carried out with a 72 hour exposure to the compound using Natural Red assay for all cell lines except SK-MEL 28 which was done with SRB assay.

DLD-1 Colon = experiment: In vitro IC50, 72 hour exposure, Natural Red assay; format: cell-based; conditions: read-out: IC50 Molar Values
Procedure: as §1, §2

LOX IMV1 Melanoma = experiment: In vitro IC50, 72 hour exposure, Natural Red assay; format: cell-based; conditions: read-out: IC50 Molar Values
Procedure: as §1, §2

NC1-H23 Lung = experiment: In vitro IC50, 72 hour exposure, Natural Red assay; format: cell-based; conditions: read-out: IC50 Molar Values
Procedure: as §1, §2

PC-3 Prostate = experiment: In vitro IC50, 72 hour exposure, Natural Red assay; format: cell-based; conditions: read-out: IC50 Molar Values
Procedure: as §1, §2

SNB-7 (CNS) = experiment: In vitro IC50, 72 hour exposure, Natural Red assay; format: cell-based; conditions: read-out: IC50 Molar Values
Procedure: as §1, §2

ZR-75-1 Mammary = experiment: In vitro IC50, 72 hour exposure, Natural Red assay; format: cell-based; conditions: read-out: IC50 Molar Values
Procedure: as §1, §2

SK-MEL 28 Melanoma = experiment: In vitro IC50, 72 hour exposure, SRB assay; format: cell-based; conditions: read-out: IC50 Molar Values
Procedure: as §1, §2

SC CAKI-1 Renal Tumor = experiment: Response of SC CAKI-1 Renal Tumor to Treatment; format: in vivo; conditions: Q 4H × 3 day 7-15
Procedure: (§3) The following in vivo tests were carried out to illustrate the effectiveness of the compounds of the present invention.

SC HCT-116 Colon Tumor = experiment: Response of SC HCT-116 Colon Tumor to Treatment; format: in vivo; conditions: Q 4H × 3 day 6-14
Procedure: as §3

[1] = Phosphorylation in cell-free CEM extracts, wild-type; format: biochemical; conditions: wild-type CEM cell extract; 1 μm substrate
Procedure: (§4) The number in parentheses is the number of experiments performed. […] At various times after the initiation of the experiment, an aliquot of each reaction volume was removed and placed on DE-81 filters. The filters were washed with 1 mM ammonium formate and ethanol, and the amount of radioactivity on each filter was determined. […] This assay was verified by HPLC.

[2] = Phosphorylation in cell-free CEM extracts, araC-resistant; format: biochemical
Procedure: as §4

CEM cells [3] = experiment: Complete metabolism of dCyd, T-dCyd, araC and T-araC in CEM cells; format: cell-based; conditions: 100 nM, incubation 1 hour
Procedure: The complete metabolism of each compound was determined: The medium was analyzed for the original compound, its deaminated form using reverse phase HPLC, and H20; the acid-soluble extract was analyzed by SAX HPLC for phosphorylated metabolites; and the incorporation of radioactivity into acid-precipitable material (DNA) was determined.

CEM cells [4] = experiment: Effect of F-dUrd on metabolism (deamination) in CEM cells; format: cell-based; conditions: 100 nM, incubation time 8 hours
Procedure: The complete metabolism of each compound was determined as described in the legend to Table 12, and the percent of deaminated metabolites for each compound was determined.

[5] = system: DNA synthesis in CEM cells; experiment: Effect on DNA synthesis ([3H]dThd incorporation) in CEM cells; format: cell-based; conditions: 150 nM, average of two experiments
Procedure: (§5) Radiolabeled precursors of DNA [^3H]dThd, RNA ([^3H]Urd), or protein ([^3H]leucine) were added to each treatment 30 minutes after the addition of each compound. Samples were taken 1, 2, 3 and 4 hours after the addition of radiolabeled precursors, and the incorporation of radioactivity into RNA, DNA, or protein were determined as described (Parker et al, Biochem. Pharmacol. 55: 1673-1681, 1998). Each number represents the average of two experiments.

[6] = system: RNA synthesis in CEM cells; experiment: Effect on RNA synthesis ([3H]Urd incorporation) in CEM cells; format: cell-based; conditions: 150 nM, average of two experiments
Procedure: as §5

[7] = system: protein synthesis in CEM cells; experiment: Effect on protein synthesis ([3H]leucine incorporation) in CEM cells; format: cell-based; conditions: 150 nM, average of two experiments
Procedure: as §5

CEM cells (wild-type) = experiment: Inhibition of CEM cell growth, wild-type; conditions: read-out: IC50 (nM) Wild-type; wild-type CEM cells; cell numbers by Coulter Counter; mean and standard deviation from 3 experiments
Procedure: (§6) CEM cells were incubated with various concentrations of each compound and the effect on. cell numbers was determined using a Coulter Counter. The IC50 was determined from a plot of the percent of control growth versus drug concentration. The data presented are the mean and standard deviation from 3 separate experiments.

araC-resistant CEM cells = experiment: Inhibition of CEM cell growth, araC-resistant; conditions: read-out: IC50 (nM) araC-resistant; araC-resistant CEM cells; cell numbers by Coulter Counter; mean and standard deviation from 3 experiments
Procedure: as §6

Nc1ccn([C@@H]2O[C@H](CO)[C@@H](O)[C@@H]2O)c(=O)n1 [araC, cytosine arabinoside]
IC50 (CAK1-1 Renal): 600 nM
IC50 (DLD-1 Colon): 5000 nM
IC50 (LOX IMV1 Melanoma): 1000 nM
IC50 (NC1-H23 Lung): 300 nM
IC50 (PC-3 Prostate): 5000 nM
IC50 (SNB-7 (CNS)): 200 nM
IC50 (ZR-75-1 Mammary): 400 nM
IC50 (SK-MEL 28 Melanoma): 2000 nM
Days Delay (T − C) (SC CAKI-1 Renal Tumor; 13.3 Mg/Kg IP): 11.0 days
Days to 3 Doubling (SC CAKI-1 Renal Tumor; 13.3 Mg/Kg IP): 20.5 days
Non-Specific Deaths/Total (SC CAKI-1 Renal Tumor; 13.3 Mg/Kg IP): 0/6
Tumor Free Surv/Total (SC CAKI-1 Renal Tumor; 13.3 Mg/Kg IP): 0/6
Tumor Regression Number of Complete (SC CAKI-1 Renal Tumor; 13.3 Mg/Kg IP): 0
Tumor Regression Number of Partial (SC CAKI-1 Renal Tumor; 13.3 Mg/Kg IP): 0
Days Delay (T − C) (SC CAKI-1 Renal Tumor; 20 Mg/Kg IP): 6.2 days
Days to 3 Doubling (SC CAKI-1 Renal Tumor; 20 Mg/Kg IP): 15.7 days
Non-Specific Deaths/Total (SC CAKI-1 Renal Tumor; 20 Mg/Kg IP): 5/6
Toxicity remark under Days Delay (T − C) (SC CAKI-1 Renal Tumor; 20 Mg/Kg IP): (Toxic)
Tumor Free Surv/Total (SC CAKI-1 Renal Tumor; 20 Mg/Kg IP): 0/6
Tumor Regression Number of Complete (SC CAKI-1 Renal Tumor; 20 Mg/Kg IP): 0
Tumor Regression Number of Partial (SC CAKI-1 Renal Tumor; 20 Mg/Kg IP): 0
Days Delay (T − C) (SC CAKI-1 Renal Tumor; 30 Mg/Kg IP): 16.2 days
Days to 3 Doubling (SC CAKI-1 Renal Tumor; 30 Mg/Kg IP): 25.7 days
Non-Specific Deaths/Total (SC CAKI-1 Renal Tumor; 30 Mg/Kg IP): 5/6
Toxicity remark under Days Delay (T − C) (SC CAKI-1 Renal Tumor; 30 Mg/Kg IP): (Toxic)
Tumor Free Surv/Total (SC CAKI-1 Renal Tumor; 30 Mg/Kg IP): 0/6
Tumor Regression Number of Complete (SC CAKI-1 Renal Tumor; 30 Mg/Kg IP): 0
Tumor Regression Number of Partial (SC CAKI-1 Renal Tumor; 30 Mg/Kg IP): 0
Days Delay (T − C) (SC HCT-116 Colon Tumor; 9 Mg/Kg IP): 2.0 days
Days to 2 Doubling (SC HCT-116 Colon Tumor; 9 Mg/Kg IP): 10.9 days
Non-Specific Deaths/Total (SC HCT-116 Colon Tumor; 9 Mg/Kg IP): 0/6
Tumor Free Surv/Total (SC HCT-116 Colon Tumor; 9 Mg/Kg IP): 0/6
Tumor Regression Number of Complete (SC HCT-116 Colon Tumor; 9 Mg/Kg IP): 0
Tumor Regression Number of Partial (SC HCT-116 Colon Tumor; 9 Mg/Kg IP): 0
Days Delay (T − C) (SC HCT-116 Colon Tumor; 13.3 Mg/Kg IP): 3.3 days
Days to 2 Doubling (SC HCT-116 Colon Tumor; 13.3 Mg/Kg IP): 12.2 days
Non-Specific Deaths/Total (SC HCT-116 Colon Tumor; 13.3 Mg/Kg IP): 0/6
Tumor Free Surv/Total (SC HCT-116 Colon Tumor; 13.3 Mg/Kg IP): 0/6
Tumor Regression Number of Complete (SC HCT-116 Colon Tumor; 13.3 Mg/Kg IP): 0
Tumor Regression Number of Partial (SC HCT-116 Colon Tumor; 13.3 Mg/Kg IP): 0
Phosphorylation, Wild-type [1]: 94 pmoles/mg protein/minute
Phosphorylation, araC-resistant CEM cells ([2]; araC-resistant CEM cell extract, 1 μm substrate): 1.2 pmoles/mg protein/minute
Percent of wild-type ([2]; phosphorylation in araC-resistant vs wild-type CEM extract): 1.3% of wild-type
DNA (percent of total) (CEM cells [3]): 0.4% of total
Deaminated Compound (percent of total) (CEM cells [3]): 0% of total
H20 (percent of total) (CEM cells [3]): 0% of total
Original Compound (percent of total) (CEM cells [3]): 87% of total
nucleoside-TP (percent of total) (CEM cells [3]): 13% of total
Percent Deamination (CEM cells [4]; F-dUrd 0 μM): 0%
Percent Deamination (CEM cells [4]; F-dUrd 10 μM): 10%
DNA synthesis, Percent of control [5]: 8% of control
RNA synthesis, Percent of control [6]: 96% of control
protein synthesis, Percent of control [7]: 96% of control
IC50 (CEM cells (wild-type)): 6 ± 3 nM
IC50 (araC-resistant CEM cells): 800 ± 400 nM
